How the values were obtained:
Plasmodium falciparum [1] = test: Antiplasmodial activity against chloroquine-sensitive Plasmodium falciparum D10 by parasite LDH assay; type: functional, organism-based
Plasmodium falciparum [2] = test: Antiplasmodial activity against chloroquine-resistant Plasmodium falciparum Dd2 by parasite LDH assay; type: functional, organism-based
CHO = test: Cytotoxicity against CHO cells by MTT assay; type: cell-based; conditions: Cricetulus griseus
Plasmodium falciparum [3] = test: Resistance index, ratio of IC50 for chloroquine-resistant Plasmodium falciparum Dd2 to IC50 for chloroquine-sensitive Plasmodium falciparum D10; type: functional
[4] = Selectivity index, ratio of IC50 for CHO cells to IC50 for chloroquine-sensitive Plasmodium falciparum D10; type: toxicity, cell-based; conditions: hamster, read-out: Ratio IC50

CCN(CC)CC(CN(CC)CC)NCc1ccccc1
IC50 (Plasmodium falciparum [1]): 23.7 µM
IC50 (Plasmodium falciparum [2]): 30.2 µM
IC50 (CHO): > 300 µM
Ratio IC50 (Plasmodium falciparum [3]): 1.3

CCN(CC)CC(CN(CC)CC)NCc1ccc(Cl)cc1
IC50 (Plasmodium falciparum [1]): 8.41 µM
IC50 (Plasmodium falciparum [2]): 19.8 µM
IC50 (CHO): 76.4 µM
Ratio IC50 (Plasmodium falciparum [3]): 2.4
selectivity ratio [4]: 9.1

CCN(CC)CC(CN(CC)CC)NCc1ccc(OC)cc1
IC50 (Plasmodium falciparum [1]): 6.66 µM
IC50 (Plasmodium falciparum [2]): 13.5 µM
IC50 (CHO): 170 µM
Ratio IC50 (Plasmodium falciparum [3]): 2
selectivity ratio [4]: 24.2

Nc1ncnc2c1ncn2CC1CN1Cc1ccccc1 (racemic)
IC50 (Plasmodium falciparum [1]): > 350 µM

Nc1ncnc2c1ncn2CC1CN1Cc1ccc(Cl)cc1 (racemic)
IC50 (Plasmodium falciparum [1]): > 300 µM

COc1ccc(CN2CC2Cn2cnc3c(N)ncnc32)cc1 (racemic)
IC50 (Plasmodium falciparum [1]): 267 µM

Cc1cn(CC2CN2Cc2ccc(Cl)cc2)c(=O)[nH]c1=O (racemic)
IC50 (Plasmodium falciparum [1]): 138 µM

COc1ccc(CN2CC2Cn2cc(C)c(=O)[nH]c2=O)cc1 (racemic)
IC50 (Plasmodium falciparum [1]): 172 µM

c1ccc(CN2CC2Cn2cncn2)cc1 (racemic)
IC50 (Plasmodium falciparum [1]): 80.7 µM

Clc1ccc(CN2CC2Cn2cncn2)cc1 (racemic)
IC50 (Plasmodium falciparum [1]): 126 µM

COc1ccc(CN2CC2Cn2cncn2)cc1 (racemic)
IC50 (Plasmodium falciparum [1]): 4.18 µM
IC50 (Plasmodium falciparum [2]): 23.2 µM
IC50 (CHO): > 400 µM
Ratio IC50 (Plasmodium falciparum [3]): 5.6

CCN(CC)CC1CN1Cc1ccccc1 (racemic)
IC50 (Plasmodium falciparum [1]): 15.2 µM
IC50 (Plasmodium falciparum [2]): 48.3 µM
IC50 (CHO): 402 µM
Ratio IC50 (Plasmodium falciparum [3]): 3.2
selectivity ratio [4]: 26.3

CCN(CC)CC1CN1Cc1ccc(Cl)cc1 (racemic)
IC50 (Plasmodium falciparum [1]): 6.49 µM
IC50 (Plasmodium falciparum [2]): 23.7 µM
IC50 (CHO): 247 µM
Ratio IC50 (Plasmodium falciparum [3]): 3.7
selectivity ratio [4]: 38.1

CCN(CC)CC1CN1Cc1ccc(OC)cc1 (racemic)
IC50 (Plasmodium falciparum [1]): 8.54 µM
IC50 (Plasmodium falciparum [2]): 18 µM
IC50 (CHO): 193 µM
Ratio IC50 (Plasmodium falciparum [3]): 2.1
selectivity ratio [4]: 22.6

CCN(CC)CC(Cn1cnc2c(N)ncnc21)NCc1ccccc1 (racemic)
IC50 (Plasmodium falciparum [1]): 214 µM

CCN(CC)CC(Cn1cnc2c(N)ncnc21)NCc1ccc(Cl)cc1 (racemic)
IC50 (Plasmodium falciparum [1]): 78.2 µM

CCN(CC)CC(Cn1cnc2c(N)ncnc21)NCc1ccc(OC)cc1 (racemic)
IC50 (Plasmodium falciparum [1]): 81.9 µM

CCN(CC)CC(Cn1cc(C)c(=O)[nH]c1=O)NCc1ccc(Cl)cc1 (racemic)
IC50 (Plasmodium falciparum [1]): 71.7 µM

CCN(CC)CC(Cn1cc(C)c(=O)[nH]c1=O)NCc1ccc(OC)cc1 (racemic)
IC50 (Plasmodium falciparum [1]): 128 µM

CCN(CC)CC(Cn1cncn1)NCc1ccccc1 (racemic)
IC50 (Plasmodium falciparum [1]): 42.9 µM
IC50 (Plasmodium falciparum [2]): 98.8 µM
IC50 (CHO): > 300 µM
Ratio IC50 (Plasmodium falciparum [3]): 2.3

CCN(CC)CC(Cn1cncn1)NCc1ccc(Cl)cc1 (racemic)
IC50 (Plasmodium falciparum [1]): 6.52 µM
IC50 (Plasmodium falciparum [2]): 13.1 µM
IC50 (CHO): > 300 µM
Ratio IC50 (Plasmodium falciparum [3]): 2

CCN(CC)CC(Cn1cncn1)NCc1ccc(OC)cc1 (racemic)
IC50 (Plasmodium falciparum [1]): 1.98 µM
IC50 (Plasmodium falciparum [2]): 80.9 µM
IC50 (CHO): 159 µM
Ratio IC50 (Plasmodium falciparum [3]): 41.1

CC[C@H]1CN2CCc3cc(OC)c(OC)cc3[C@@H]2C[C@@H]1C[C@H]1NCCc2cc(OC)c(OC)cc21 [EMETINE]
IC50 (CHO): 0.127 µM
